Earlier results as cited in patent publication US20110171717A1, “METHOD FOR ENHANCING […]” (priority 2006, published 2011).

System: polymerase
Details: cited from earlier work; for effect on polymerase activity: known from Weyant et al., BioTechniques 1990

Q: What does the source list for `CCCCCCCCCCCCOS(=O)(=O)[O-].[Na+]` [SDS, Sodium dodecyl sulfate]?
A: effect on polymerase activity at low concentration (e.g., 0.01% of SDS): inhibit a polymerase activity even at low concentrations; effect on polymerase activity: inhibit a polymerase activity

Q: Which “effect on polymerase activity” value does the source give for `CCCCCCCCCCCC(=O)N(C)CC(=O)[O-].[Na+]` [sodium N-lauroyl sarcosinate, N-Lauroylsarcosine-sodium salt] here?
A: inhibit a polymerase activity

Q: With Sodium deoxycholate as the compound, how does the “effect on polymerase activity” value read?
A: inhibit a polymerase activity
